# “And” between values parts separate entries of the source, which are not always exact repeats. Equal entries are not always repeated.
# System: HL-60 cells
# Assay: Chemotaxis assay: fluorescence of Di-I labeled cells migrated across radiation opaque membrane
# Format: cell-based
# Description: The cell line HL-60 (ATCC No. CCL 240) was maintained in logarithmic growth phase as a suspension culture at about 10^6 cells/mL. in RPMI 1640 medium (Mediatech Cellgrow, Fisher Scientific, Pittsburgh, PA.) supplemented with 20% (volume by volume) fetal bovine serum. (Hyclone Laboratories, Salt Lake City, UT). The cells were differentiated into mature myelocytes and neutrophils by incubating the cells for 48 hours at 37° C. in media containing 1.5% (volume by volume) dimethylsulfoxide.
# Following the treatment with dimethylsulfoxide, the cells were incubated with 50 μM Di-I fluorescent dye (Molecular Probes, Inc., Eugene, OR) at room temperature for 0.5-2 hours. The cells were then washed with Hanks' Balanced Salt Solution (“HBSS”) (Sigma Chemical Co., St. Louis, MO.) and re-suspended in HBSS to achieve a cell concentration of 10^6 cells/mL. The fluorescence of 0.5 mL. of cell suspension was measured in a Cytofluor™ 2300 fluorescent plate reader (Millipore Corp., Marlborough, MA.).
# Membrane 1: Polycarbonate film having a plurality of pores of 8 μm diameter were coated with four molecular layers of carbon and one layer of an admixture of gold and palladium in a vacuum evaporator. […] 6 mm disks of the radiation opaque membrane were glued to the bottom of inserts similar to the Millicell HA-12 mm (Millipore Corp.) or the Transwell-6.5 mm (Costar Corp., Cambridge, MA.) inserts with clear silicone rubber cement.
# Membrane 2: A non-porous polyester film (18 μm thick) containing a blue dye (Aquired Technology Inc., Alpharetta, GA.) was subjected to atomic etching to produce a 10 μm thick radiation opaque membrane containing a plurality of pores of 8 μm diameter having a combined radiation blocking efficiency of approximately 99%. 6 mm disks of the radiation opaque membrane were glued to the bottoms of inserts as with membrane 1.
# Each insert equipped with the either membrane 1 or membrane 2 were placed in a well of a 24-well culture plate (Falcon, Fisher Scientific). 0.5 mL of labeled cell suspension was placed inside each insert. The plate was incubated for 30 minutes at 37° C. to allow the cells to settle on the radiation opaque membrane. The fluorescence of each well was then measured with the Cytofluor™ 2300 to obtain a zero time reading. 0.5 mL of either N-formyl methionyl leucyl phenylalanine (“f-MLP”) (Sigma Chemical Co.) or HBBS was then added to each well. The fluorescence in each well was then measured at periodic time intervals using the Cytofluor™ 2300 at sensitivity setting 4. Results using membrane 1 are reported in Tables 1 and 2 and graphically illustrated in FIGS. 4 and 5. Results using membrane 2 are reported in Table 3 and graphically illustrated in FIGS. 6 and 7.
# [1] = membrane 1, f-MLP/f-MLP (f-MLP also added to cell suspension immediately before start), 10^−7 M
# [2] = membrane 1, insert/well HBSS/f-MLP, f-MLP Conc. = 10^−8 M
# [3] = membrane 1, insert/well f-MLP/f-MLP (f-MLP added to cell suspension immediately before start), 10^−8 M
# [4] = membrane 1, test solutions well/insert HBSS/f-MLP, f-MLP Conc. = 10^−7 M
# [5] = membrane 2, Millicell-type insert, well 20: Insert leaked, insert/well HBSS/f-MLP, 2 × 10^−8 M
# [6] = membrane 2, Millicell-type inserts, insert/well HBSS/f-MLP, f-MLP Conc. = 2 × 10^−8 M
# [7] = membrane 2, Millicell-type inserts, insert/well f-MLP/f-MLP (f-MLP added to cell suspension immediately before start), 2 × 10^−8 M
# [8] = membrane 2, Transwell-type inserts, insert/well HBSS/f-MLP, f-MLP Conc. = 2 × 10^−8 M
# [9] = membrane 2, Transwell-type inserts, insert/well f-MLP/f-MLP (f-MLP added to cell suspension immediately before start), 2 × 10^−8 M
structure (smiles),measurement,setting,value
"CSCC[C@H](NC=O)C(=O)N[C@@H](CC(C)C)C(=O)N[C@@H](Cc1ccccc1)C(=O)O [f-MLP, N-formyl methionyl leucyl phenylalanine]",Fluorescence 0 hr.,"membrane 1, f-MLP/f-MLP (f-MLP also added to cell suspension immediately before start), 10^−7 M, 0 hr.",706
same,Fluorescence 1 hr.,[1],654
same,Fluorescence 2 hr.,[1],708
same,Fluorescence 3 hr.,[1],732
same,Fluorescence 4 hr.,[1],728
same,Fluorescence 5 hr.,[1],753
same,FLUORESCENCE 0 min.,"membrane 1, insert/well HBSS/f-MLP, f-MLP Conc. = 10^−8 M, 0 min. (zero time reading)",2515 and 2927 and 2895 and 2631 and 2594
same,FLUORESCENCE 15 min.,[2],3388 and 4195 and 4165 and 3398 and 3446
same,FLUORESCENCE 30 min.,[2],3594 and 4475 and 4400 and 3584 and 3707
same,FLUORESCENCE 60 min.,[2],3614 and 4642 and 4539 and 3645 and 3813
same,FLUORESCENCE 90 min.,[2],3717 and 4761 and 4642 and 3728 and 3932
same,FLUORESCENCE 150 min.,[2],3770 and 4788 and 4655 and 3728 and 3999
same,FLUORESCENCE 0 min.,"membrane 1, insert/well f-MLP/f-MLP (f-MLP added to cell suspension immediately before start), 10^−8 M, 0 min.",2854
same,FLUORESCENCE 15 min.,[3],2675
same,FLUORESCENCE 30 min.,[3],2721
same,FLUORESCENCE 60 min.,[3],2721
same,FLUORESCENCE 90 min.,[3],2783
same,FLUORESCENCE 150 min.,[3],2783
same,Fluorescence 0 hr.,"membrane 1, test solutions well/insert HBSS/f-MLP, f-MLP Conc. = 10^−7 M, 0 hr. (zero time reading)",383
same,Fluorescence 1 hr.,[4],1046
same,Fluorescence 2 hr.,[4],1355
same,Fluorescence 3 hr.,[4],1433
same,Fluorescence 4 hr.,[4],1370
same,Fluorescence 5 hr.,[4],1359
same,Fluorescence 0 hr.,"membrane 2, Millicell-type insert, well 20: Insert leaked, insert/well HBSS/f-MLP, 2 × 10^−8 M, 0 hr.",1228
same,Fluorescence 0.5 hr.,[5],5928
same,Fluorescence 1 hr.,[5],6063
same,Fluorescence 2 hr.,[5],6342
same,Fluorescence 3 hr.,[5],6504
same,Fluorescence 0 hr.,"membrane 2, Millicell-type inserts, insert/well HBSS/f-MLP, f-MLP Conc. = 2 × 10^−8 M, 0 hr. (zero time reading)",1277 and 1242
same,Fluorescence 0.5 hr.,[6],1573 and 1207
same,Fluorescence 1 hr.,[6],1701 and 1830
same,Fluorescence 2 hr.,[6],1836 and 1931
same,Fluorescence 3 hr.,[6],1851 and 1969
same,Fluorescence 0 hr.,"membrane 2, Millicell-type inserts, insert/well f-MLP/f-MLP (f-MLP added to cell suspension immediately before start), 2 × 10^−8 M, 0 hr.",1187 and 1231
same,Fluorescence 0.5 hr.,[7],1181 and 1325
same,Fluorescence 1 hr.,[7],1516 and 1454
same,Fluorescence 2 hr.,[7],1622 and 1541
same,Fluorescence 3 hr.,[7],1673 and 1604
same,Fluorescence 0 hr.,"membrane 2, Transwell-type inserts, insert/well HBSS/f-MLP, f-MLP Conc. = 2 × 10^−8 M, 0 hr. (zero time reading)",1055 and 1064 and 1097
same,Fluorescence 0.5 hr.,[8],1770 and 1454 and 1775
same,Fluorescence 1 hr.,[8],2066 and 1846 and 2185
same,Fluorescence 2 hr.,[8],2351 and 2143 and 2411
same,Fluorescence 3 hr.,[8],2536 and 2292 and 2432
same,Fluorescence 0 hr.,"membrane 2, Transwell-type inserts, insert/well f-MLP/f-MLP (f-MLP added to cell suspension immediately before start), 2 × 10^−8 M, 0 hr.",1049 and 961
same,Fluorescence 0.5 hr.,[9],1277 and 1245
same,Fluorescence 1 hr.,[9],1413 and 1390
same,Fluorescence 2 hr.,[9],1538 and 1564
same,Fluorescence 3 hr.,[9],1582 and 1711
